Measured values reported in article PMC12114375, “Discovery of Hydrazineyl Amide Derivative of Pseudolaric Acid B for Reprogramming Tumor-Associated Macrophages Against Tumor Growth” (Molecules, 2025).

What was measured:
Assay type in all cases: cell-based, mouse
[1] = tested on: Raw264.7 cells; test: Cell viability (CCK-8) of RAW264.7 cells; conditions: IL-4/IL-13 plus compound 10 μM, 12 h
Method: Cells were seeded in 96-well tissue culture plates. On the next day, cells were exposed to various concentrations of compounds and further cultured for the indicated period. Finally, cell proliferation was determined by using the Cell Counting Kit (CCK-8) (Dojindo, Kumamoto, Japan) assay.
Figure S2. Effects of natural pseudolaric acids 1-4, 6 and their O-pyranosides 5, 7 as well as the derivatives 8-18 o f 1 on Raw264.7 cell viability. Raw264.7 cells were treated with IL-4/IL-13 alone or combined with indicated compounds (10 μM) for 12 h. After incubation, the cell viability was determined using a cell counting kit (CCK-8, Dojindo, Japan) assay.
(1 picture or pasted object on this page, not shown here)

[2] = tested on: CD8+ T cell proliferation and activation suppressed by M2-like BMDMs; test: CD8+ T cell suppression assay (BMDM / spleen cell co-culture); conditions: BMDMs pretreated 48 h, co-cultured 48 h with anti-CD3/CD28-stimulated spleen cells
Method: Pro-tumoral M2-like TAMs are well-known to directly suppress CD8^+ T cell proliferation and activation. When they were co-cultured with autologous spleen cells, as expected, the IL-4/IL-13-induced BMDMs suppressed the proliferation and activation of CD8^+ T cells.
Spleen cells were isolated from C57BL/6 mice, followed by red blood cell (RBC) lysis. BMDMs were induced into M2-like macrophages and treated with different concentrations of compound 1 for 48 h. Then, 2 × 10^5 spleen cells/well were stimulated with αCD3/αCD28 and co-cultured with 2 × 10^4 pro-treated BMDMs in 96-well plates in LCM (RPMI 1640 with […] 2-mercaptoethanol and 10% fetal bovine serum) at 37 °C. After 48 h, the spleen cells were treated with the eBioscience™ Cell Stimulation Cocktail (plus protein transport inhibitors) for 4 h, and cell activation was then determined by the proportion of IFNγ^+ CD8^+ T cells and GRZB^+ CD8^+ T cells in CD8^+ T cells measured using flow cytometry. Cell proliferation was determined by the proportion of Ki67^+ CD8^+ T cells in CD8^+ T cells using flow cytometry.
Figure 3 Compound 12 reverses macrophage-mediated CD8^+ T cell suppression. […] The ratios of Ki67^+ CD8^+ T cells (A), IFNγ^+ CD8^+ T cells, and granzyme B^+ CD8^+ T cells (B) in total CD8^+ T cells were assessed using flow cytometry. […]

[3] = tested on: NOS2 mRNA expression in RAW 264.7 cells; test: qRT-PCR of NOS2 mRNA in IL-4/IL-13-stimulated RAW 264.7 cells; conditions: Mus musculus, RAW264.7, IL-4/IL-13 (20 ng/mL) plus compound 10 μM, 12 h, stimulated control = 100%, mean ± SD, read-out: NOS2 mRNA Relative Expression (%)
From the text: We first investigated the impacts of a series of commercially available natural pseudolaric acids or their O-pyranosides (Figure 1) on the pro-tumoral phenotype of TAMs, which play a critical role in anti-tumor immune response modulation. […] In contrast, M1-biased macrophages combat tumor growth and bacterial infections by expressing inducible nitric oxide synthase 2 (NOS2), which catalyzes the production of nitric oxide (NO). Recognizing the pivotal roles of ARG1 and NOS2, we utilized these molecules as key biomarkers and effectors for assessing macrophage immune function. In our experiments, the mouse monocyte–macrophage leukemia cell line RAW 264.7 was induced with IL-4/IL-13 to acquire an M2-like pro-tumoral phenotype. Concurrently, the cells were treated with the pseudolaric acid-related natural products 1–7 at a concentration of 10 μM for 12 h. Additionally, PLX3397 was used as a positive control at a concentration of 0.5 μM. […] As shown in Table 1 and Figure S1A, pseudolaric acid B (1), its deacetoxyl analogue 2 (pseudolaric acid C), and β-D-glucoside 7 substantially attenuated the upregulation of ARG1 mRNA expression induced by IL-4/IL-13, with statistically significant effects. In contrast, bis-carboxylic acids analogs 4 (pseudolaric acid C2) and 6 (demethoxydeacetoxypseudolaric acid B) have no significant impact on ARG1 mRNA expression.
With these carboxylic acid-modified derivatives in hand, we investigated their impact at 10 μM on ARG1 and NOS2 mRNA expression in RAW 264.7 cells pre-stimulated with IL-4/IL-13 to evaluate the effects on the pro-tumor phenotype of macrophages. […] Further removal of one hydroxyl from the glycerol moiety 15 further enhanced the inhibitory effect on ARG1 expression but had no significant impact on NOS2 expression.
Total RNA was isolated from cells using the EZ-press RNA Purification Kit (EZBioscience, Suzhou, China) and subjected to reverse transcription with the 5×HiScript II qRT SuperMix II (Vazyme, Nanjing, China). PCR was performed with the 2×ChamQ Universal SYBR qPCR Master Mix (Vazyme, Nanjing, China). All primers for qRT-PCR are described in Table S1. The 2^−∆∆Ct method was utilized to calculate the fold change in gene expression, with the expression levels in the stimulated group set as the baseline for normalization.

COC(=O)C1=CC[C@@]23CC[C@@H]([C@@](C)(/C=C/C=C(\C)C(=O)NNCCO)OC2=O)[C@@]3(OC(C)=O)CC1 [compound 12, Methyl(3R,4S,4aS,9aR)-4a-acetoxy-3-((1E,3E)-5-(2-(2-hydroxyethyl)hydrazineyl)-4-methyl-5-oxopenta-1,3-dien-1-yl)-3-methyl-1-oxo-3,4,4a,5,6,9-hexahydro-1H-4,9a-ethanocyclohepta[c]pyran-7-carboxylate]
cell viability [1]: no significant diminution in cell viability | inhibitory effects of IL-4/IL-13-induced BMDMs on CD8+ T cell proliferation and activation (Ki67+, IFNγ+, GRZB+ CD8+ T cells) [2]: dose-dependently reversed | activity at 10 µM [3]: 182 ± 5.3%
